Data as given in the supplement of paper PMC10307832.

How the values were obtained:
Assay in all cases: relative viability (nuclei count vs DMSO), 5 days (fraction); higher = more cells survive
ABC-1 = test system: ABC-1
Procedure, shortened: (§1)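 One day after seeding in 1536-well plates, lung cancer cell lines were dosed by pin tool. Dosing was either single-drug or a fixed anchor-drug dose plus five library-drug doses (not always all listed) in √10 steps. After 5 days, nuclei were stained in one fix-and-stain step and counted on 4× images, and relative viability is the nuclei count of treated wells over that of vehicle wells, given as the median of duplicate plates.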

ChaGo-K-1 = test system: ChaGo-K-1
Procedure, shortened: as §1

HCC-78 = test system: HCC-78
Procedure, shortened: as §1

HOP-62 = test system: HOP-62
Procedure, shortened: as §1

LCLC-97TM1 = test system: LCLC-97TM1
Procedure, shortened: as §1

LOU-NH91 = test system: LOU-NH91
Procedure, shortened: as §1

NCI-H1355 = test system: NCI-H1355
Procedure, shortened: as §1

NCI-H1437 = test system: NCI-H1437
Procedure, shortened: as §1

NCI-H1755 = test system: NCI-H1755
Procedure, shortened: as §1

NCI-H1792 = test system: NCI-H1792
Procedure, shortened: as §1

NCI-H2009 = test system: NCI-H2009
Procedure, shortened: as §1

NCI-H2023 = test system: NCI-H2023
Procedure, shortened: as §1

NCI-H2085 = test system: NCI-H2085
Procedure, shortened: as §1

NCI-H2170 = test system: NCI-H2170
Procedure, shortened: as §1

NCI-H23 = test system: NCI-H23
Procedure, shortened: as §1

NCI-H2405 = test system: NCI-H2405
Procedure, shortened: as §1

NCI-H322M = test system: NCI-H322M
Procedure, shortened: as §1

NCI-H441 = test system: NCI-H441
Procedure, shortened: as §1

NCI-H650 = test system: NCI-H650
Procedure, shortened: as §1

NCI-H727 = test system: NCI-H727
Procedure, shortened: as §1

RERF-LC-KJ = test system: RERF-LC-KJ
Procedure, shortened: as §1

SK-MES-1 = test system: SK-MES-1
Procedure, shortened: as §1

UMC-11 = test system: UMC-11
Procedure, shortened: as §1

With `O=C(O)CCCCC(CCSCc1ccccc1)SCc1ccccc1` (centres undefined) [CPI-613] + N=C(N)NC(=N)NCCc1ccccc1 [Phenformin] (partner 250 µM) the relative viability (ABC-1; first compound 5 µM) was 0.22, the relative viability (ABC-1; first compound 15.81 µM) was 0.211 and the relative viability (ABC-1; first compound 50 µM) was 0.247. The relative viability (ABC-1; first compound 158.11 µM) was 0.146, the relative viability (ABC-1; first compound 500 µM) was 0.192 and the relative viability (ChaGo-K-1; first compound 5 µM) was 0.47. It also gave a relative viability (ChaGo-K-1; first compound 15.81 µM) of 0.454, a relative viability (ChaGo-K-1; first compound 50 µM) of 0.491 and a relative viability (ChaGo-K-1; first compound 158.11 µM) of 0.331. The relative viability (ChaGo-K-1; first compound 500 µM) was 0.124, the relative viability (HCC-78; first compound 5 µM) was 0.712 and the relative viability (HCC-78; first compound 15.81 µM) was 0.647. For the same compound, the relative viability (HCC-78; first compound 50 µM) was 0.787, the relative viability (HCC-78; first compound 158.11 µM) was 0.591 and the relative viability (HCC-78; first compound 500 µM) was 0.651. The relative viability (HOP-62; first compound 5 µM) was 0.67, the relative viability (HOP-62; first compound 15.81 µM) was 0.632 and the relative viability (HOP-62; first compound 50 µM) was 0.62. For the same compound, the relative viability (HOP-62; first compound 158.11 µM) was 0.437, the relative viability (HOP-62; first compound 500 µM) was 0.204 and the relative viability (LCLC-97TM1; first compound 5 µM) was 0.446. It also gave a relative viability (LCLC-97TM1; first compound 15.81 µM) of 0.325, a relative viability (LCLC-97TM1; first compound 50 µM) of 0.405 and a relative viability (LCLC-97TM1; first compound 158.11 µM) of 0.371. For the same compound, the relative viability (LCLC-97TM1; first compound 500 µM) was 0.0437, the relative viability (LOU-NH91; first compound 5 µM) was 0.784 and the relative viability (LOU-NH91; first compound 15.81 µM) was 0.591. For the same compound, the relative viability (LOU-NH91; first compound 50 µM) was 0.652, the relative viability (LOU-NH91; first compound 158.11 µM) was 0.504 and the relative viability (LOU-NH91; first compound 500 µM) was 0.526. It also gave a relative viability (NCI-H1355; first compound 5 µM) of 0.423, a relative viability (NCI-H1355; first compound 15.81 µM) of 0.412 and a relative viability (NCI-H1355; first compound 50 µM) of 0.411. For the same compound, the relative viability (NCI-H1355; first compound 158.11 µM) was 0.347, the relative viability (NCI-H1355; first compound 500 µM) was 0.105 and the relative viability (NCI-H1437; first compound 5 µM) was 0.237. For the same compound, the relative viability (NCI-H1437; first compound 15.81 µM) was 0.282, the relative viability (NCI-H1437; first compound 50 µM) was 0.287 and the relative viability (NCI-H1437; first compound 158.11 µM) was 0.119. The relative viability (NCI-H1437; first compound 500 µM) was 0.0327, the relative viability (NCI-H1755; first compound 5 µM) was 0.608 and the relative viability (NCI-H1755; first compound 15.81 µM) was 0.642. For the same compound, the relative viability (NCI-H1755; first compound 50 µM) was 0.558, the relative viability (NCI-H1755; first compound 158.11 µM) was 0.533 and the relative viability (NCI-H1755; first compound 500 µM) was 0.183. The relative viability (NCI-H1792; first compound 5 µM) was 0.332, the relative viability (NCI-H1792; first compound 50 µM) was 0.236 and the relative viability (NCI-H1792; first compound 158.11 µM) was 0.205. The relative viability (NCI-H1792; first compound 500 µM) was 0.0809, the relative viability (NCI-H2009; first compound 5 µM) was 0.478 and the relative viability (NCI-H2009; first compound 15.81 µM) was 0.443. The relative viability (NCI-H2009; first compound 50 µM) was 0.42, the relative viability (NCI-H2009; first compound 158.11 µM) was 0.0548 and the relative viability (NCI-H2009; first compound 500 µM) was 0.0187. The relative viability (NCI-H2023; first compound 5 µM) was 0.399, the relative viability (NCI-H2023; first compound 15.81 µM) was 0.37 and the relative viability (NCI-H2023; first compound 50 µM) was 0.36. For the same compound, the relative viability (NCI-H2023; first compound 158.11 µM) was 0.0556, the relative viability (NCI-H2023; first compound 500 µM) was 0.0073 and the relative viability (NCI-H2085; first compound 5 µM) was 0.814. The relative viability (NCI-H2085; first compound 15.81 µM) was 0.62, the relative viability (NCI-H2085; first compound 50 µM) was 0.701 and the relative viability (NCI-H2085; first compound 158.11 µM) was 0.295. The relative viability (NCI-H2085; first compound 500 µM) was 0.0903, the relative viability (NCI-H2170; first compound 5 µM) was 0.435 and the relative viability (NCI-H2170; first compound 15.81 µM) was 0.404. It also gave a relative viability (NCI-H2170; first compound 50 µM) of 0.38, a relative viability (NCI-H2170; first compound 158.11 µM) of 0.352 and a relative viability (NCI-H2170; first compound 500 µM) of 0.11. For the same compound, the relative viability (NCI-H23; first compound 5 µM) was 0.819, the relative viability (NCI-H23; first compound 15.81 µM) was 0.746 and the relative viability (NCI-H23; first compound 50 µM) was 0.803. For the same compound, the relative viability (NCI-H23; first compound 158.11 µM) was 0.358, the relative viability (NCI-H23; first compound 500 µM) was 0.0072 and the relative viability (NCI-H2405; first compound 5 µM) was 0.394. For the same compound, the relative viability (NCI-H2405; first compound 15.81 µM) was 0.367, the relative viability (NCI-H2405; first compound 50 µM) was 0.392 and the relative viability (NCI-H2405; first compound 158.11 µM) was 0.396. The relative viability (NCI-H2405; first compound 500 µM) was 0.371, the relative viability (NCI-H322M; first compound 5 µM) was 0.76 and the relative viability (NCI-H322M; first compound 15.81 µM) was 0.718. It also gave a relative viability (NCI-H322M; first compound 50 µM) of 0.728, a relative viability (NCI-H322M; first compound 158.11 µM) of 0.693 and a relative viability (NCI-H322M; first compound 500 µM) of 0.0264. It also gave a relative viability (NCI-H441; first compound 5 µM) of 0.885, a relative viability (NCI-H441; first compound 15.81 µM) of 0.734 and a relative viability (NCI-H441; first compound 50 µM) of 0.79. It also gave a relative viability (NCI-H441; first compound 158.11 µM) of 0.284, a relative viability (NCI-H441; first compound 500 µM) of 0.0276 and a relative viability (NCI-H650; first compound 5 µM) of 0.508. For the same compound, the relative viability (NCI-H650; first compound 15.81 µM) was 0.412, the relative viability (NCI-H650; first compound 50 µM) was 0.448 and the relative viability (NCI-H650; first compound 158.11 µM) was 0.371. The relative viability (NCI-H650; first compound 500 µM) was 0.333, the relative viability (NCI-H727; first compound 5 µM) was 0.548 and the relative viability (NCI-H727; first compound 15.81 µM) was 0.693. For the same compound, the relative viability (NCI-H727; first compound 50 µM) was 0.62, the relative viability (NCI-H727; first compound 158.11 µM) was 0.353 and the relative viability (NCI-H727; first compound 500 µM) was 0.0983. It also gave a relative viability (RERF-LC-KJ; first compound 5 µM) of 0.42, a relative viability (RERF-LC-KJ; first compound 15.81 µM) of 0.409 and a relative viability (RERF-LC-KJ; first compound 50 µM) of 0.406. For the same compound, the relative viability (RERF-LC-KJ; first compound 158.11 µM) was 0.134, the relative viability (RERF-LC-KJ; first compound 500 µM) was 0.0945 and the relative viability (SK-MES-1; first compound 5 µM) was 0.642. For the same compound, the relative viability (SK-MES-1; first compound 15.81 µM) was 0.623, the relative viability (SK-MES-1; first compound 50 µM) was 0.599 and the relative viability (SK-MES-1; first compound 158.11 µM) was 0.147. It also gave a relative viability (SK-MES-1; first compound 500 µM) of 0.0887, a relative viability (UMC-11; first compound 5 µM) of 0.274 and a relative viability (UMC-11; first compound 15.81 µM) of 0.297. For the same compound, the relative viability (UMC-11; first compound 50 µM) was 0.289, the relative viability (UMC-11; first compound 158.11 µM) was 0.124 and the relative viability (UMC-11; first compound 500 µM) was 0.117.
